Reference: patent US9006221B2, “Method of modulating ship activity” (H. Lee Moffitt Cancer Center and Reserach Institute, Inc., priority 2008, dated 2015)

Tests used:
[1] = biological target: T1, PTEN (Homo sapiens, UniProt P60484); test: Malachite Green phosphate release assay, PTEN; format: biochemical
T1 construct: purchased
Experimental: The absorbance measurements shown correspond to liberated PO4 generated by recombinant PTEN (1.44 μg) when incubated with its substrate, PI (3,4,5)P3, as detected by a Malachite Green reporter.
(A) Purified, recombinant SHIP1 has significant activity as determined by the reduction in mean polarization units (mPu) in an FP assay designed for 5′-inositol phosphatases (Echelon Biosciences, Salt Lake City, Utah.). Note that no significant reduction in mP is obtained when the enzyme buffer without SHIP1 is added to the FP assay (Buffer) or when purified SHIP1 is assayed in the absence of its PI(3,4,5)P3 substrate (SHIP1 only).
Assay of SHIP1 enzymatic activity: A fluorescent polarization (FP) assay that detects the 5′-inositol phosphatase activity of SHIP1 was developed based on a previously established protocol [Drees B E, et al., Comb Chem High Throughput Screen (2003) 6(4):321-330] and was obtained from Echelon Biosciences (Salt Lake City, USA). Modifications of the protocol included the application of SHIP1 in the assay and an increase in the concentration of MgCl2 to […] to maximize the activity of SHIP1 in this assay. […]

[2] = tested on: Mac1+Gr1+ myeloid immunoregulatory cells; test: FACS quantitation of Mac1+Gr1+ myeloid suppressor (MySC/MIR) cells in spleen and lymph node of treated mice; format: in vivo, mouse; settings: for number of Mac1+Gr1+ MySC (MDSC): daily injection at 125 μM for 7 days; for number of MIR cells: daily i.p. injection at 60 μM for 7 days
Experimental: FACS quantitation of Mac1^+Gr1^+ Myeloid-Derived Suppressor Cells (Mac1^+Gr1^+ MySC) (A,B) and FoxP3^+CD4^+CD25^+ Treg cells (C,D) in spleen and lymph node of C57BL6 mice treated with NSC13480, vehicle or non-manipulated mice (Normal). ***p<0.001; *p<0.05.
In addition, both donor and host Treg cells can also limit or abrogate GvHD. […] (Paraiso, K. H., et al. 2007. J Immunol 178:2893). […] Adult mice were treated for 7 days with a daily injection of NSC13480 at 125 μM. The frequency of MySC and Treg cells was tested in the spleens of mice treated with NSC13480, the vehicle used for delivery of NSC 13480 and normal, untreated mice.
Expansion of the Mac1^+Gr1^+ MIR cell compartment can suppress GvHD. [Ghansah T, et al., J Immunol (2004) 173(12):7324-7330; Paraiso K H, et al., J Immunol (2007) 178(5):2893-2900; MacDonald K P, et al., J Immunol (2005) 174(4):1841-1850] Thus, the ability 3α-aminocholestane to expand the MIR compartment in peripheral lymphoid tissues, where GvHD and organ transplant rejection are primed, was tested. Adult mice were treated for 7 days with a daily intraperitoneal (i.p.) injection of 3α-aminocholestane at 60 μM. We then compared the frequency of MIR cells in the spleens and LN of mice treated with 3α-aminocholestane to that of control mice treated with either their respective vehicles or to unmanipulated mice. […] Thus, consistent with the findings in mice genetically ablated for SHIP1 expression during adult physiology [Paraiso K H, et al., J Immunol (2007) 178(5):2893-2900], inhibition of SHIP1 activity in adult mice expands the MIR cell compartment in peripheral lymphoid tissues.
Antibody staining and flow cytometry (Examples 1-6): Anti-CD16/32 was co-incubated with the samples to block Fc receptor binding. Antibodies used for staining included: NK1.1 (PK136); CD3e (145-2C11); Ly49G2 (4D11); Gr-1 (RB6-8C5); Mac-1(M1/70); CD11c (HL3); CD4 (GK1.5); CD25 (PC61) and were obtained from BD Pharmingen (San Jose, Calif.). FoxP3 (FJK-16s) was purchased from eBioScience (San Diego, Calif.). All samples were acquired on a FACSCalibur and analyzed using FlowJo8.7.1. For viable staining, dead cells were excluded from the analysis following cytometer acquisition of data by exclusion of the 7AAD dye. For staining of FoxP3, viable cells were first stained for extacellular markers followed by fixation and permeabilization to stain for the intracellular FoxP3.
Use of SHIP1 inhibitory compounds for in vitro and in vivo studies: For in vitro studies 3α-aminocholestane was suspended in 100% ethanol. […]
Antibody staining and flow cytometry (Examples 7-9): Anti-CD16/32 was incubated with the samples to block Fc receptor binding. […] All samples were acquired on a FACSCalibur and analyzed using FlowJo8.7.1. […]

T1 sequence (P60484 whole entry, species assumed): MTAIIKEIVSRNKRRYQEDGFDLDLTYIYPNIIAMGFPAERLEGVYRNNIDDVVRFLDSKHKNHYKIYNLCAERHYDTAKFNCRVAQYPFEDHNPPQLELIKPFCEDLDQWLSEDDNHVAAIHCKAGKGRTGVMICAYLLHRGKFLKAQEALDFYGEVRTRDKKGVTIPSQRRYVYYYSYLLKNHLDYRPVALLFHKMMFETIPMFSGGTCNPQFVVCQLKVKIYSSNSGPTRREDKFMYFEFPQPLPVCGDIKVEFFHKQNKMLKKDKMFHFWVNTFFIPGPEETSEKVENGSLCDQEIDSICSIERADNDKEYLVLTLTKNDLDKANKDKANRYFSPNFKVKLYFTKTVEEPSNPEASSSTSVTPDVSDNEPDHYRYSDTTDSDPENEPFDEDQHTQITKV

| SMILES | inhibition of PTEN ([1]; at 100 μM, Malachite Green reporter, recombinant PTEN 1.44 μg) | number of Mac1+Gr1+ MySC (MDSC) ([2]; lymph node) | number of Mac1+Gr1+ MySC (MDSC) ([2]; spleen) | inhibition of PTEN activity ([1]; at 1 mM, Malachite Green assay) | number of MIR cells ([2]; lymph node) | number of MIR cells ([2]; spleen) |
| --- | --- | --- | --- | --- | --- | --- |
| OC(c1cc(-c2ccccc2)nc2c1ccc1ccccc12)C1CCCCN1 (stereo not drawn) [NSC13480, (2-phenylbenzo[h]quinolin-4-yl)-piperidin-2-ylmethanol] | no significant inhibition | increased significantly | increased significantly | – | – | – |
| CC(C)CCC[C@@H](C)[C@H]1CC[C@H]2[C@@H]3CC[C@H]4C[C@H](N)CC[C@]4(C)[C@H]3CC[C@]12C [NSC23922, (3R,5S,8R,9S,10S,13R,14S,17R)-10,13-dimethyl-17-[(2R)-6-methylheptan-2-yl]-2,3,4,5,6,7,8,9,11,12,14,15,16,17-tetradecahydro-1H-cyclopenta[a]phenanthren-3-amine] | – | – | – | fails to inhibit | increased significantly | increased significantly |
